The record followed here is patent US20200131669A1, “CYCLIC PEPTIDE COMPOUND HAVING HIGH MEMBRANE PERMEABILITY, AND LIBRARY CONTAINING SAME” (Chugai Seiyaku Kabushiki Kaisha, priority 2017, published 2020).

As usually defined, the Papp A→B is how fast a substance crosses the layer from the apical side. The low end stands for poor permeation, the high end for ready permeation.

Starred links: 1 amine or outer side, 2 acyl side, 3 side chain; linkers in the order of their positions; H or OH if unused. Positions of bridges follow the written chain, without caps; N, C: chain ends. Non-standard residues stand in square brackets, D forms with d. Residues, ends and D or L forms follow the SMILES beside them. *: point of attachment. Glu(NHSO2Me) = CS(=O)(=O)NC(=O)CC[C@H](N)C(=O)O; Tyr(3-F) = N[C@@H](Cc1ccc(O)c(F)c1)C(=O)O; NMeW = CN[C@@H](Cc1c[nH]c2ccccc12)C(=O)O; NMeF = CN[C@@H](Cc1ccccc1)C(=O)O; NMeGABA = CN(CCCC(=O)[*:2])[*:1]; NMeI = CC[C@H](C)[C@H](NC)C(=O)O; NMeL = CN[C@@H](CC(C)C)C(=O)O; NMeV = CN[C@H](C(=O)O)C(C)C; NMeAbu = CC[C@H](NC)C(=O)O; NMeA = CN[C@@H](C)C(=O)O; Piperidide = C1CCN(*)CC1; NBuGly = CCCCNCC(=O)O; Sar = CNCC(=O)O; tBu = CC(C)(C)*

The first data set can be described thus: Caco-2 membrane permeability, improved method as used in the following Examples (96-well, 20 to 24 h preincubation). In kind it is in vitro ADME. The note with it: human, Caco-2, Caco-2. As for the experimental part: In the following Examples, membrane permeability was measured in accordance with the improved method established as described above. Specifically, Caco-2 cells were cultured on a 96-well Transwell for three weeks, after which DMEM+FaSSIF (1% DMSO)+compound were added to the apical side and DMEM was added to the basal side, and the cells were preincubated at 5% CO2, 37° C., and 80 rpm for 20 to 24 hours. Following the preincubation, measurement of membrane permeability was initiated by removing the preincubation solution on the apical and basal sides by suction, washing the membrane, and adding FaSSIF/HBSS buffer (1% DMSO) (pH 6.0) containing the compound to the apical side and HBSS buffer (4% BSA) (pH 7.4) to the basal side. Each well was shaken at 5% CO2, 37° C., and 80 rpm, and 180 minutes after the initiation, the sample on the basal side was collected and the permeation amount was measured by LC/MS. The membrane permeability coefficient (Papp) was calculated from the permeation amount. Herein, the terms “Caco-2 (cm/sec)” in the columns in the tables and “Papp (cm/sec)” are used in the same meaning.
(Passage across Caco-2 layers is used to estimate intestinal permeability.)
Compound `CCCCN1CC(=O)N(C)[C@@H](C(C)C)C(=O)N[C@H](C(=O)N2CCCCC2)CC(=O)N(C)[C@@H](CC)C(=O)N[C@@H](CC(C)C)C(=O)N(C)[C@@H](CC(C)C)C(=O)N(C)[C@@H](Cc2ccccc2)C(=O)N[C@@H](CCC(=O)NS(C)(=O)=O)C(=O)N(C)[C@@H](Cc2ccccc2)C(=O)N(C)[C@@H](CC(C)C)C(=O)N[C@@H](CC(C)C)C1=O` [pd69] ([NMeAbu]L[NMeL][NMeF][Glu(NHSO2Me)][NMeF][NMeL]L[NBuGly][NMeV]D-Piperidide; lactam N-11) yielded an apparent permeability from apical to basolateral (Papp A→B) at 180 min below 0.14 ×10⁻⁶ cm/s. As to `CCCCN1CC(=O)N(C)[C@@H](Cc2ccccc2)C(=O)N[C@@H](CCC(=O)NS(C)(=O)=O)C(=O)N(C)[C@@H](CC(C)C)C(=O)N[C@@H](CC(C)C)C(=O)N(C)CC(=O)N(C)[C@@H](Cc2ccccc2)C(=O)N(C)[C@@H](CC(C)C)C(=O)N[C@@H](CC(C)C)C(=O)N(C)[C@@H](CC(C)C)C(=O)N[C@H](C(=O)N2CCCCC2)CC1=O` [pd70] ([NBuGly][NMeF][Glu(NHSO2Me)][NMeL]L[Sar][NMeF][NMeL]L[NMeL]D-Piperidide; lactam N-11), the Papp A→B at 180 min came out at 0.17 ×10⁻⁶ cm/s.

The same data set, now with this note: human, Caco-2, Caco-2 (cm/sec).
`CC(C)C[C@@H]1NC(=O)[C@H](CC(C)C)N(C)C(=O)[C@H](C)N(C)C(=O)[C@@H](C(C)C)NC(=O)C[C@@H](C(=O)N2CCCCC2)NC(=O)[C@H]([C@@H](C)O)NC(=O)[C@H](C)N(C)C(=O)CN(C)C(=O)[C@H](CC(C)C)N(C)C(=O)[C@H](Cc2c[nH]c3ccccc23)NC(=O)[C@H](Cc2ccccc2)N(C)C1=O` [pd100] ([dV][NMeA][NMeL]L[NMeF]W[NMeL][Sar][NMeA]TD-Piperidide; lactam N-11) had an apical-to-basolateral permeability (Papp A→B) at 180 min of 0.11 ×10⁻⁶ cm/s.

In the case of `CC[C@H](C)[C@H]1C(=O)N[C@@H](Cc2c[nH]c3ccccc23)C(=O)N(C)CC(=O)N(C)[C@@H](C)C(=O)N[C@H](C(=O)N2CCCCC2)CC(=O)N(C)[C@@H](C)C(=O)N[C@@H](CC(C)C)C(=O)N(C)[C@@H](CC(C)C)C(=O)N(C)[C@@H](CC(C)C)C(=O)N[C@@H](C)C(=O)N(C)[C@@H](CC(C)C)C(=O)N1C` [pd101] ([NMeA]L[NMeL][NMeL]A[NMeL][NMeI]W[Sar][NMeA]D-Piperidide; lactam N-11), the Papp A→B at 180 min came to 0.13 ×10⁻⁶ cm/s. Compound `CC[C@H](C)[C@H]1C(=O)N[C@@H]([C@@H](C)O)C(=O)N(C)CC(=O)N(C)[C@@H](CC(C)C)C(=O)N[C@H](C(=O)N2CCCCC2)CC(=O)N(C)[C@@H](C)C(=O)N[C@@H](CC(C)C)C(=O)N(C)[C@@H](CC(C)C)C(=O)N(C)[C@@H](Cc2c[nH]c3ccccc23)C(=O)N[C@@H](C(C)C)C(=O)N(C)[C@@H](CC(C)C)C(=O)N1C` [pd102] ([NMeA]L[NMeL][NMeW]V[NMeL][NMeI]T[Sar][NMeL]D-Piperidide; lactam N-11) yielded an apical-to-basolateral permeability (Papp A→B) at 180 min of 1.1 ×10⁻⁶ cm/s. Against the preceding compound, the Papp A→B at 180 min is about 8.5-fold higher. On to `CC[C@H](C)[C@@H]1NC(=O)[C@H](CC(C)C)N(C)C(=O)CN(C)C(=O)C[C@@H](C(=O)N2CCCCC2)NC(=O)[C@H](C)N(C)C(=O)[C@H](COC(C)(C)C)NC(=O)[C@H](CC(C)C)N(C)C(=O)[C@H](CC(C)C)N(C)C(=O)CN(C)C(=O)[C@H](Cc2c[nH]c3ccccc23)NC(=O)[C@H](CC(C)C)N(C)C1=O` [pd103] ([Sar][NMeL]I[NMeL]W[Sar][NMeL][NMeL]S(tBu)[NMeA]D-Piperidide; lactam N-11), for which the Papp A→B at 180 min was 0.093 ×10⁻⁶ cm/s. `CC(C)C[C@H]1C(=O)N(C)[C@@H](Cc2c[nH]c3ccccc23)C(=O)N(C)[C@@H](Cc2ccccc2)C(=O)N[C@@H]([C@@H](C)O)C(=O)N(C)[C@@H](C)C(=O)N(C)[C@@H](CC(C)C)C(=O)N[C@H](C(=O)N2CCCCC2)CC(=O)N(C)[C@@H](C)C(=O)N(C)[C@@H](CC(C)C)C(=O)N(C)[C@@H](CC(C)C)C(=O)N[C@@H](C)C(=O)N1C` [pd104] ([NMeA][NMeL][NMeL]A[NMeL][NMeW][NMeF]T[NMeA][NMeL]D-Piperidide; lactam N-11) displayed a Papp A→B at 180 min of 0.025 ×10⁻⁶ cm/s. Against the preceding compound, the Papp A→B at 180 min is about 3.7-fold lower.

Regarding `CC(C)C[C@H]1C(=O)N(C)[C@@H](CC(C)C)C(=O)N(C)[C@@H](Cc2c[nH]c3ccccc23)C(=O)N[C@@H]([C@@H](C)O)C(=O)N(C)[C@@H](C)C(=O)N(C)[C@@H](CC(C)C)C(=O)N[C@H](C(=O)N2CCCCC2)CC(=O)N(C)[C@@H](C)C(=O)N(C)[C@@H](CC(C)C)C(=O)N(C)[C@@H](CC(C)C)C(=O)N[C@@H](C)C(=O)N1C` [pd105] ([NMeA][NMeL][NMeL]A[NMeL][NMeL][NMeW]T[NMeA][NMeL]D-Piperidide; lactam N-11), the Papp A→B at 180 min came out at 0.28 ×10⁻⁶ cm/s. The compound `CC(C)C[C@@H]1NC(=O)[C@H](Cc2c[nH]c3ccccc23)N(C)C(=O)[C@@H](C(C)C)NC(=O)C[C@@H](C(=O)N2CCCCC2)NC(=O)[C@H](CC(C)C)N(C)C(=O)[C@H](CC(C)C)N(C)C(=O)[C@H](COC(C)(C)C)NC(=O)[C@H](CC(C)C)N(C)C(=O)CN(C)C(=O)[C@H]([C@@H](C)O)NC(=O)[C@H](CC(C)C)N(C)C1=O` [pd106] ([dV][NMeW]L[NMeL]T[Sar][NMeL]S(tBu)[NMeL][NMeL]D-Piperidide; lactam N-11) had an apical-to-basolateral permeability (Papp A→B) at 180 min of 0.36 ×10⁻⁶ cm/s. `CC[C@H](C)[C@@H]1NC(=O)[C@H](CC(C)C)N(C)C(=O)CCCN(C)C(=O)C[C@@H](C(=O)N2CCCCC2)NC(=O)[C@H](CC(C)C)N(C)C(=O)[C@H](CC(C)C)N(C)C(=O)[C@H]([C@@H](C)O)NC(=O)[C@H](CC(C)C)N(C)C(=O)[C@H](COC(C)(C)C)NC(=O)[C@H](Cc2c[nH]c3ccccc23)N(C)C(=O)[C@H](Cc2ccccc2)N(C)C1=O` [pd107] ([NMeGABA][NMeL]I[NMeF][NMeW]S(tBu)[NMeL]T[NMeL][NMeL]D-Piperidide; lactam N-11) yielded a Papp A→B at 180 min of 0.17 ×10⁻⁶ cm/s. Turning to `CC[C@H](C)[C@@H]1NC(=O)[C@H](CC(C)C)N(C)C(=O)[C@@H](C)NC(=O)C[C@@H](C(=O)N2CCCCC2)NC(=O)[C@H](C(C)C)N(C)C(=O)[C@H](CC(C)C)N(C)C(=O)[C@H](COC(C)(C)C)NC(=O)[C@H](CC(C)C)N(C)C(=O)CN(C)C(=O)[C@H](Cc2c[nH]c3ccccc23)NC(=O)[C@H](CC(C)C)N(C)C1=O` [pd108] ([dA][NMeL]I[NMeL]W[Sar][NMeL]S(tBu)[NMeL][NMeV]D-Piperidide; lactam N-11), the Papp A→B at 180 min turned out to be 0.87 ×10⁻⁶ cm/s. Against the preceding compound, the Papp A→B at 180 min is about 5.1-fold higher. Compound `CC(C)C[C@H]1C(=O)N(C)[C@@H](Cc2c[nH]c3ccccc23)C(=O)N(C)[C@@H](Cc2ccccc2)C(=O)N[C@@H]([C@@H](C)O)C(=O)N(C)[C@@H](C)C(=O)N(C)[C@@H](CC(C)C)C(=O)N[C@H](C(=O)N2CCCCC2)CC(=O)N(C)[C@@H](C)C(=O)N(C)[C@@H](CC(C)C)C(=O)N(C)[C@@H](CC(C)C)C(=O)N[C@@H](C(C)C)C(=O)N1C` [pd109] ([NMeA][NMeL][NMeL]V[NMeL][NMeW][NMeF]T[NMeA][NMeL]D-Piperidide; lactam N-11) returned an apparent permeability from apical to basolateral (Papp A→B) at 180 min of 0.0092 ×10⁻⁶ cm/s. The same measure, in the same setting: the result for `CC[C@H](C)[C@@H]1NC(=O)[C@H](CC(C)C)N(C)C(=O)CCCN(C)C(=O)C[C@@H](C(=O)N2CCCCC2)NC(=O)[C@H](CC(C)C)N(C)C(=O)[C@H](C)N(C)C(=O)[C@H](Cc2c[nH]c3ccccc23)NC(=O)[C@H](CC(C)C)N(C)C(=O)[C@H](COC(C)(C)C)NC(=O)[C@H](CC(C)C)N(C)C(=O)[C@H](CC(C)C)N(C)C1=O` [pd110] ([NMeGABA][NMeL]I[NMeL][NMeL]S(tBu)[NMeL]W[NMeA][NMeL]D-Piperidide; lactam N-11) reads 0.29 ×10⁻⁶ cm/s. For the compound `CC[C@H](C)[C@H]1C(=O)N[C@@H]([C@@H](C)O)C(=O)N(C)CC(=O)N(C)[C@@H](CC(C)C)C(=O)N[C@H](C(=O)N2CCCCC2)CC(=O)N(C)[C@@H](CC(C)C)C(=O)N[C@@H](CC(C)C)C(=O)N(C)[C@@H](CC(C)C)C(=O)N(C)[C@@H](Cc2c[nH]c3ccccc23)C(=O)N[C@@H](CC(C)C)C(=O)N(C)[C@@H](Cc2ccccc2)C(=O)N1C` [pd111] ([NMeL]L[NMeL][NMeW]L[NMeF][NMeI]T[Sar][NMeL]D-Piperidide; lactam N-11), the apparent permeability from apical to basolateral (Papp A→B) at 180 min amounted to 0.16 ×10⁻⁶ cm/s. The same measure, in the same setting: next, `CC[C@H](C)[C@@H]1NC(=O)[C@H](Cc2ccccc2)N(C)C(=O)[C@@H](C)NC(=O)C[C@@H](C(=O)N2CCCCC2)NC(=O)[C@H](CC(C)C)N(C)C(=O)[C@H](C)N(C)C(=O)[C@H](COC(C)(C)C)NC(=O)[C@H](C)N(C)C(=O)CN(C)C(=O)[C@H](Cc2ccc(O)cc2)NC(=O)[C@H](CC(C)C)N(C)C1=O` [pd112] ([dA][NMeF]I[NMeL]Y[Sar][NMeA]S(tBu)[NMeA][NMeL]D-Piperidide; lactam N-11): 0.11 ×10⁻⁶ cm/s; `CC(C)C[C@@H]1NC(=O)[C@H](CC(C)C)N(C)C(=O)[C@H](C)N(C)C(=O)[C@@H](C(C)C)NC(=O)C[C@@H](C(=O)N2CCCCC2)NC(=O)[C@H]([C@@H](C)O)NC(=O)[C@H](C)N(C)C(=O)[C@H](C)N(C)C(=O)[C@H](CC(C)C)N(C)C(=O)[C@H](Cc2ccc(O)c(F)c2)NC(=O)[C@H](Cc2ccccc2)N(C)C1=O` [pd113] ([dV][NMeA][NMeL]L[NMeF][Tyr(3-F)][NMeL][NMeA][NMeA]TD-Piperidide; lactam N-11): 0.029 ×10⁻⁶ cm/s.
